Experiment in all cases: DTP human tumour cell line panel, 48 h
Assay [1] deals with CCRF-CEM.
In assay [2] the test system is COLO 205.
Assay [3] deals with HCT-116.
Assay [4] concerns HOP-92.
The subject of assay [5] is LXFL 529.
The subject of assay [6] is M14.
Assay [7] relates to NCI-H522.
The subject of assay [8] is OVCAR-5.
Assay [9] deals with SF-539.
In assay [10] the test system is SK-MEL-28.
Assay [11] has as its system SN12C.
Assay [12] deals with SR.
Assay [13] concerns TK-10.
The test system of assay [14] is U-251.
Assay [15] concerns UACC-257.
For assay [16], the system named is RPMI-8226.
Assay [17] concerns RXF 393.

Structures are written as SMILES.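 Growth conditions: 96-well plates. Treatment: test compound, 48 hours, 5 concentrations. Analysis: linear interpolation between bracketing concentrations; unreached endpoints set to highest concentration. Here, GI50 denotes the concentration required for 50% inhibition of growth.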 Calls of active or inactive are those of the source. No stated cut-off is given here; in the data, active = GI50 up to about 1.1 µM and inactive = higher.

A word on the GI50: it is the concentration at which growth is held to half of that of the control. As for `Oc1ncnc2c1sc(=S)n2-c1ccccc1`, the GI50 in assay [1] is > 100 µM (inactive); in [2], > 100 µM (inactive); in [3], > 100 µM (inactive); in assay [4], 70.3 µM (inactive); in assay [5] it was > 100 µM (inactive); in assay [6], > 100 µM (inactive). Besides, the GI50 in assay [7], in [8], in assay [9], in assay [10], in assay [11] and in [12] was > 100 µM (inactive) throughout. Moreover, the GI50 in [13], in [14] and in assay [15] was > 100 µM (inactive) in each case.
On to `Cc1ccc(/N=N/c2c(-c3ccccc3)nn(C(=O)CC(=O)Nc3ccc(Cl)cc3)c2-c2ccccc2)cc1`, for which the GI50 was 18.6 µM (inactive) in assay [1]; 59.3 µM (inactive) in [2]; 61.5 µM (inactive) in assay [3]; 23.9 µM (inactive) in assay [4]; 27.9 µM (inactive) in [5]; 65.2 µM (inactive) in assay [6]. Also, the GI50 in [7] was 37.8 µM (inactive); in assay [8], 48.6 µM (inactive); in [16] it was 18.8 µM (inactive); in assay [17], 28.4 µM (inactive); in assay [9], 58.9 µM (inactive); in assay [10] it was > 100 µM (inactive). Also, the GI50 in assay [11] was > 100 µM (inactive); in assay [12] it was 12.3 µM (inactive); in assay [14], 40 µM (inactive); in [15], > 100 µM (inactive).
For the molecule `CCn1c(SC(C)C(=O)c2c(C)n(C)n(-c3ccccc3)c2=O)nc2ccccc2c1=O` (stereo not drawn), the GI50 is > 100 µM (inactive) in [1]; > 100 µM (inactive) in assay [2]; > 100 µM (inactive) in [3]; 4.47 µM (inactive) in assay [4]; > 100 µM (inactive) in assay [5]; > 100 µM (inactive) in [6]. The GI50 in assay [7] is 84.1 µM (inactive); in [8], > 100 µM (inactive); in assay [16], 95.1 µM (inactive); in assay [9], > 100 µM (inactive); in assay [10], > 100 µM (inactive); in assay [11], > 100 µM (inactive). For the same molecule, the GI50 in [12], in [13], in assay [14] and in assay [15] was > 100 µM (inactive) throughout.
For the molecule `CC1c2[nH]c3ccccc3c2CCN1O` (stereo not drawn), the GI50 in assay [1], in assay [2], in assay [3], in assay [4], in [5] and in [6] was > 100 µM (inactive) throughout. Further, the GI50 in [7], in assay [8], in assay [16], in assay [17], in assay [9] and in assay [10] was > 100 µM (inactive) throughout. Moreover, the GI50 in assay [11], in assay [13], in assay [14] and in assay [15] was > 100 µM (inactive) throughout.
On to `CN(C)c1n/c(=N/c2ccc3c(c2)OCO3)ss1`, for which the GI50 is 32.5 µM (inactive) in assay [1]; 49 µM (inactive) in assay [3]; 56.5 µM (inactive) in assay [4]; 35.3 µM (inactive) in [5]; > 100 µM (inactive) in assay [6]; 26.7 µM (inactive) in [7]. In addition, the GI50 in [8] was > 100 µM (inactive); in assay [16], 19.3 µM (inactive); in [17] it was 96.4 µM (inactive); in assay [9], 67.6 µM (inactive); in [10], > 100 µM (inactive); in assay [11], 73.6 µM (inactive). Besides, the GI50 in assay [13] is > 100 µM (inactive); in [14] it was 37.6 µM (inactive); in assay [15], > 100 µM (inactive).
Consider `CSc1nc(NC2OCC(OC(C)=O)C(OC(C)=O)C2OC(C)=O)c2c(n1)OCC2=O` (stereo not drawn), for which the GI50 in [1], in [2], in assay [3], in assay [5], in assay [6] and in [7] was > 100 µM (inactive) throughout. For the same molecule, the GI50 in assay [8], in assay [16], in [17], in assay [9], in assay [10] and in assay [11] was > 100 µM (inactive) in each case. For the same molecule, the GI50 in assay [13], in assay [14] and in [15] was > 100 µM (inactive) each time.
As for `NC(=O)C12CCC1C1CCCCC12N1CCOCC1` (stereo not drawn), the GI50 in [1], in [3], in assay [4], in [5], in assay [6] and in assay [7] was > 100 µM (inactive) in each case. Besides, the GI50 in [8], in [16], in assay [17], in assay [9], in assay [10] and in assay [11] was > 100 µM (inactive) in each case. For the same molecule, the GI50 in [12], in [13] and in assay [14] was > 100 µM (inactive) each time.
In the case of `COC(=O)C1Cc2c(n(C)c3ccccc23)C(c2ccccc2)N1` (stereo not drawn), the GI50 in assay [1] is 52.1 µM (inactive); in assay [2], 23 µM (inactive); in assay [3], 34.4 µM (inactive); in assay [4], > 100 µM (inactive); in assay [5] it was 33.7 µM (inactive); in [6], > 100 µM (inactive). For the same molecule, the GI50 was 16.9 µM (inactive) in assay [7]; > 100 µM (inactive) in assay [8]; 63.7 µM (inactive) in [16]; > 10 µM (inactive) in assay [9]; > 100 µM (inactive) in [10]; > 100 µM (inactive) in assay [11]. For the same molecule, the GI50 in [12] is 67.9 µM (inactive); in assay [13], > 100 µM (inactive); in assay [14] it was 48 µM (inactive); in assay [15], 15.2 µM (inactive).
Regarding `Cc1cn2c(=O)c3ncn(C4OC(CO)C(O)C4O)c3n(C)c2n1` (stereo not drawn), the GI50 in [1], in assay [2], in assay [3], in [4], in assay [5] and in [6] was > 100 µM (inactive) in each case. Moreover, the GI50 in assay [7], in assay [8], in [16], in assay [17], in [9] and in assay [10] was > 100 µM (inactive) in each case. Further, the GI50 in assay [11], in assay [13], in [14] and in [15] was > 100 µM (inactive) in each case.
Regarding `O=C1c2ccccc2C(=O)c2sc(Nc3cccc(Cl)c3)nc21`, the GI50 in [1] was 1.36 µM (inactive); in assay [2] it was 5.38 µM (inactive); in assay [3], 1.82 µM (inactive); in [5], 1.48 µM (inactive); in [6], 1.82 µM (inactive); in [7] it was 1.45 µM (inactive). In addition, the GI50 in assay [8] is 2.22 µM (inactive); in assay [16] it was 0.966 µM (active); in assay [17], 1.45 µM (inactive); in assay [9], 1.93 µM (inactive); in assay [10], 1.81 µM (inactive); in [11] it was 1.51 µM (inactive). The GI50 is 2.34 µM (inactive) in assay [12], 2.88 µM (inactive) in assay [13], 1.31 µM (inactive) in [14] and 1.52 µM (inactive) in assay [15].
With `CCOc1ccc(/N=C\c2ccc3cc(C)ccc3n2)cc1`, the GI50 in assay [1] was 22.5 µM (inactive); in assay [2], > 100 µM (inactive); in assay [4], 66.8 µM (inactive); in assay [5], 30.5 µM (inactive); in assay [6] it was 49.1 µM (inactive); in [7] it was > 100 µM (inactive). The GI50 is > 100 µM (inactive) in assay [8]; 22.8 µM (inactive) in assay [16]; 91 µM (inactive) in [17]; 40.3 µM (inactive) in [9]; > 100 µM (inactive) in [10]; > 100 µM (inactive) in assay [11]. For the same molecule, the GI50 in [13] was 79.3 µM (inactive); in assay [14], > 100 µM (inactive); in assay [15] it was 76 µM (inactive).
For the molecule `O=C(O)CN(c1ccccc1)S(=O)(=O)c1cccc([N+](=O)[O-])c1`, the GI50 in [1], in [2], in assay [4], in [5], in [6] and in assay [7] was > 100 µM (inactive) in each case. In addition, the GI50 in assay [8], in assay [16], in assay [17], in [9], in assay [10] and in assay [11] was > 100 µM (inactive) throughout. Further, the GI50 in assay [13], in assay [14] and in assay [15] was > 100 µM (inactive) in each case.
On to `C=C1CC[C@@H]2C(C)(C)CCC[C@@]2(C)[C@@H]1Cc1cc(O)ccc1O`, for which the GI50 in assay [1] was 0.558 µM (active); in assay [2] it was 15.9 µM (inactive); in [3], 4.62 µM (inactive); in assay [4], 2.79 µM (inactive); in assay [5], 2.11 µM (inactive); in assay [6] it was 11.8 µM (inactive). The GI50 in assay [7] was 1.84 µM (inactive); in [8] it was 15.1 µM (inactive); in [16] it was 3.14 µM (inactive); in assay [17], 1.67 µM (inactive); in assay [9], 1.93 µM (inactive); in [10] it was 2.56 µM (inactive). For the same molecule, the GI50 in [11] is 4.27 µM (inactive); in [12], 2.42 µM (inactive); in assay [13], 3.17 µM (inactive); in [14] it was 3.72 µM (inactive); in assay [15] it was 1.93 µM (inactive).

(Values after ChEMBL document CHEMBL1201862, “PubChem BioAssay data set” (2004).)
